Test results published in ChEMBL document CHEMBL1123199, “Synthesis and structure-activity relationships of naftifine-related allylamine antimycotics” (1986).
Values after ≈ are worked out from the molar mass of the structure shown.

What was measured:
Aspergillus fumigatus = assay: Antifungal activity measured against Aspergillus fumigatus; format: functional
Candida parapsilosis = assay: Antifungal activity against Candida parapsilosis.; format: functional; details: Lodderomyces parapsilosis
Epidermophyton floccosum = assay: Antifungal activity against Epidermophyton floccosum.; format: functional
Cavia porcellus [1] = assay: In vivo antifungal activity by topical treatment of guinea pig dermatophytosis caused by Trichophyton mentagrophytes at a dose of 0.1%; format: functional
Cavia porcellus [2] = assay: In vivo antifungal activity by topical treatment of guinea pig dermatophytosis caused by Trichophyton mentagrophytes at a dose of 0.5%; format: functional
Cavia porcellus [3] = assay: In vivo antifungal activity by topical treatment of guinea pig dermatophytosis caused by Trichophyton mentagrophytes at a dose of 2%; format: functional
Microsporum canis = assay: Antifungal activity against Microsporum canis; format: functional
Sporothrix schenckii [4] = assay: Antifungal activity measured against Sporothrix schenck ii.; format: functional
Trichophyton benhamiae = assay: Antifungal activity measured against Trichophyton mentagrophytes; format: functional, Arthroderma benhamiae
Cavia porcellus [5] = assay: In vivo antifungal activity (% cure) was determined by topical treatment of guinea pig dermatophytosis caused by Trichophyton mentagrophytes at a dose of […]; format: functional
[6] = Antifungal activity against Trichophyton mentagrophytes.; format: functional, Arthroderma benhamiae; details: Trichophyton benhamiae
Cavia porcellus [7] = assay: In vivo antifungal activity (% cure) was determined by topical treatment of guinea pig dermatophytosis caused by Trichophyton mentagrophytes at a dose of 0.5%; format: functional
Cavia porcellus [8] = assay: In vivo antifungal activity (% cure) was determined by topical treatment of guinea pig dermatophytosis caused by Trichophyton mentagrophytes at a dose of 2%; format: functional
Sporothrix schenckii [9] = assay: Antifungal activity was measured against Sporothrix schenck ii.; format: functional

Row | MIC (Aspergillus fumigatus) [µg/mL] | MIC (Candida parapsilosis) [µg/mL] | MIC (Epidermophyton floccosum) [µg/mL] | MIC (Microsporum canis) [µg/mL] | MIC (Sporothrix schenckii [4]) [µg/mL] | MIC (Trichophyton benhamiae) [µg/mL] | MIC [6] [µg/mL] | MIC (Sporothrix schenckii [9]) [µg/mL] | Structure (SMILES) | Activity (Cavia porcellus [1]) [%] | Activity (Cavia porcellus [2]) [%] | Activity (Cavia porcellus [3]) [%] | Activity (Cavia porcellus [5]) [%] | Activity (Cavia porcellus [7]) [%] | Activity (Cavia porcellus [8]) [%]
1 | 100 (≈ 332 µM) | 12.5 (≈ 41.5 µM) | < 1.6 | < 1.6 | 12.5 (≈ 41.5 µM) | < 1.6 |  |  | CCN(C/C=C/c1ccccc1)Cc1cccc2ccccc12 | 19 | 25 | 81 |  |  | 
2 | > 100 | 25 (≈ 86.1 µM) | ≤ 1.6 | ≤ 1.6 | ≤ 1.6 | ≤ 1.6 |  |  | CN(C/C=C/c1ccccc1)Cc1cn(C)c2ccccc12 | 0 | 0 | 88 |  |  | 
3 | > 100 | 2.5 (≈ 8.67 µM) | 1.6 (≈ 5.55 µM) | 1.6 (≈ 5.55 µM) | 12.5 (≈ 43.3 µM) | 1.6 (≈ 5.55 µM) |  |  | CN(C/C=C/c1ccccc1)Cc1ccnc2ccccc12 | 0 | 0 | 3 |  |  | 
4 | > 100 | > 100 | 12.5 (≈ 43.3 µM) | 12.5 (≈ 43.3 µM) | 100 (≈ 347 µM) | < 1.6 |  |  | CN(C/C=C/c1ccccn1)Cc1cccc2ccccc12 | 0 | 0 | 7 |  |  | 
5 | > 100 | > 100 | 50 (≈ 165 µM) | 50 (≈ 165 µM) | 100 (≈ 330 µM) |  | 25 (≈ 82.4 µM) |  | CN(C/C=C/c1ccccc1)Cc1c(O)ccc2ccccc12 |  |  |  |  |  | 
6 | > 100 | 50 (≈ 158 µM) | ≤ 1.6 | ≤ 1.6 | 50 (≈ 158 µM) |  | ≤ 1.6 |  | COc1ccc(CN(C)C/C=C/c2ccccc2)c2ccccc12 |  | 41 | 65 |  |  | 
7 | > 100 | > 100 | 25 (≈ 87 µM) | 50 (≈ 174 µM) | 100 (≈ 348 µM) |  | 25 (≈ 87 µM) |  | CN(C/C=C/c1ccccc1)Cc1ccc2ccccc2c1 |  |  |  |  |  | 

The next lines start with the molecule.

Row | Structure (SMILES) | MIC (Aspergillus fumigatus) [µg/mL] | MIC (Candida parapsilosis) [µg/mL] | MIC (Epidermophyton floccosum) [µg/mL] | MIC (Microsporum canis) [µg/mL] | MIC (Sporothrix schenckii [4]) [µg/mL] | MIC (Trichophyton benhamiae) [µg/mL] | MIC [6] [µg/mL] | MIC (Sporothrix schenckii [9]) [µg/mL] | Activity (Cavia porcellus [1]) [%] | Activity (Cavia porcellus [2]) [%] | Activity (Cavia porcellus [3]) [%] | Activity (Cavia porcellus [5]) [%] | Activity (Cavia porcellus [7]) [%] | Activity (Cavia porcellus [8]) [%]
8 | CCCC/C=C/C/C=C/CN(C)Cc1cccc2ccccc12 | 25 (≈ 81.3 µM) | 1.6 (≈ 5.2 µM) | 0.2 (≈ 0.65 µM) | 0.1 (≈ 0.325 µM) | 3.1 (≈ 10.1 µM) | 0.05 (≈ 0.163 µM) |  |  |  | 69 | 100 | 40 |  | 
9 | CN(C/C=C/C(=O)O)Cc1cccc2ccccc12 | < 100 | < 100 | < 100 | < 100 | < 100 |  | < 100 |  |  |  |  |  |  | 
10 | CN(C/C=C/c1ccccc1)C(=O)c1cccc2ccccc12 | 12.5 (≈ 41.5 µM) | > 100 | ≤ 1.6 | ≤ 1.6 | 25 (≈ 82.9 µM) | ≤ 1.6 |  |  | 0 | 0 | 60 |  |  | 
11 | CN(C/C=C/c1ccccc1)c1cccc2ccccc12 | > 100 | > 100 | > 100 | > 100 | > 100 |  | 6.2 (≈ 22.7 µM) |  |  |  |  |  |  | 
12 | CN(C/C=C/c1cccs1)Cc1cccc2ccccc12 | 100 (≈ 341 µM) | 6.2 (≈ 21.1 µM) | 0.2 (≈ 0.682 µM) | 0.2 (≈ 0.682 µM) | 3.1 (≈ 10.6 µM) | 0.1 (≈ 0.341 µM) |  |  | 13 | 56 | 96 |  |  | 
13 | CN(C/C=C/c1ccccc1)Cc1cccc2c1CCCC2 | > 100 | 50 (≈ 172 µM) | 0.8 (≈ 2.75 µM) | 0.8 (≈ 2.75 µM) | 3.1 (≈ 10.6 µM) | 0.4 (≈ 1.37 µM) |  |  | 0 | 22 | 50 |  |  | 
14 | CC(c1cccc2ccccc12)N(C)C/C=C/c1ccccc1 (stereo not drawn) | 50 (≈ 166 µM) | 3.1 (≈ 10.3 µM) | 0.2 (≈ 0.663 µM) | 0.4 (≈ 1.33 µM) | 3.1 (≈ 10.3 µM) | 0.1 (≈ 0.332 µM) |  |  | 15 | 75 | 100 |  |  | 
15 | Cc1ccc(/C=C/CN(C)Cc2cccc3ccccc23)cc1 | > 100 | 50 (≈ 166 µM) | < 1.6 | < 1.6 | 12.5 (≈ 41.5 µM) | < 1.6 |  |  | 7 | 22 | 50 |  |  | 
16 | CN(C/C=C/c1ccccc1)CC1CCCc2ccccc21 (stereo not drawn) | > 100 | > 100 | 50 (≈ 172 µM) | 50 (≈ 172 µM) | 100 (≈ 343 µM) |  | 6.2 (≈ 21.3 µM) |  |  |  |  |  |  | 
17 | CN(C/C=C/C1=CCCCC1)Cc1cccc2ccccc12 | 12.5 (≈ 42.9 µM) | 0.8 (≈ 2.75 µM) | 0.1 (≈ 0.343 µM) | 0.1 (≈ 0.343 µM) | 0.8 (≈ 2.75 µM) | 0.05 (≈ 0.172 µM) |  |  | 41 | 97 | 100 |  |  | 
18 | CN(C/C=C/c1ccccc1)CC1=CCc2ccccc21 | > 100 | > 100 | 12.5 (≈ 45.4 µM) | 3.1 (≈ 11.3 µM) | > 100 |  | 1.6 (≈ 5.81 µM) |  |  |  |  |  |  | 
19 | CN(C/C=C/C(=O)OCc1ccccc1)Cc1cccc2ccccc12 | > 100 | > 100 | < 1.6 | < 1.6 | 12.5 (≈ 36.2 µM) | < 1.6 |  |  | 0 |  |  |  | 0 | 8
20 | CCOC(=O)/C=C/C=C/CN(C)Cc1cccc2ccccc12 | > 100 | > 100 | 3.1 (≈ 10 µM) | 3.1 (≈ 10 µM) |  | < 1.6 |  | 100 (≈ 323 µM) |  |  |  |  |  | 
